These results are taken from patent US9624169B2, “Aryl- and heteroaryl-pyrrolidine-2-carboxamide compounds” (SciFluor Life Sciences, Inc., priority 2015, dated 2017).

For the assay, the system named is formalin induced pain. Kind of assay: Formalin induced pain model in rats (flinching, lifting, licking, biting and trembling of injected paw). Conditions: for Effect on the flinching response (in words): at tested dose levels; for Effect on duration of paw lifting post-formalin injection (in words): all dose levels; for Effect on all testing behaviors (lifting, licking, biting and trembling) post-formalin injection (in words): all tested dose levels.

[1] abbreviates: Phase 1, group 4, 3 mg/ml (Table 2: 3 mg/kg P.O.).
[2] abbreviates: Phase 1, group 5, 10 mg/ml (Table 2: 10 mg/kg P.O.).
[3] abbreviates: Phase 1, group 6, 30 mg/ml (Table 2: 30 mg/kg P.O.).
The mark [4] stands for this setting: Phase 2, group 4, 3 mg/ml (Table 2: 3 mg/kg P.O.).
The mark [5] stands for this setting: Phase 2, group 5, 10 mg/ml (Table 2: 10 mg/kg P.O.).
The mark [6] stands for this setting: Phase 2, group 6, 30 mg/ml (Table 2: 30 mg/kg P.O.).
Setting [7] is: phase 1, control compounds, Compound 1A at 3 mg/kg.
[8] abbreviates: Phase 1, group 3, 100 mg/ml (Table 2: 100 mg/kg P.O.).
Setting [9] is: Phase 2, group 3, 100 mg/ml (Table 2: 100 mg/kg P.O.).
Setting [10] is: Phase 1, group 2, 1 mg/ml (Table 2: 1 mg/kg I.P.).
[11] abbreviates: Phase 2, group 2, 1 mg/ml (Table 2: 1 mg/kg I.P.).

Regarding `NC(=O)[C@@H]1CC[C@H](c2ccc(OC(c3ccccc3F)C(F)(F)F)cc2)N1` (stereo partly drawn) [Compound 1A, (2S,5R)-5-(4-(2,2,2-trifluoro-1-(2-fluorophenyl)ethoxy)phenyl)pyrrolidine-2-carboxamide], the “Effect on the flinching response (in words)” value is “no effect”. Under setting [1], the “Group Mean of Average Duration of Licking, Biting and Trembling” value (shortened to “Group Mean … Biting and Trembling”) stood at 34.2 ± 26.8 No. per 5 min; the “Group Mean of Average Duration of Lifting” value (from here on “Group Mean … of Lifting”) is reported as 37.1 ± 43.8 No. per 5 min; the “Group Mean of Average Flinching Response” value came out at 15.2 ± 11.3 No. per 5 min; the “Group Mean of Total Testing Behavior” value amounted to 71.3 ± 56.4 No. per 5 min. In addition, under setting [2], the “Group Mean … Biting and Trembling” value is recorded as 21.9 ± 25.1 No. per 5 min; the “Group Mean … of Lifting” value is given as 17.3 ± 22.8 No. per 5 min; the “Group Mean of Average Flinching Response” value turned out to be 10.5 ± 3.7 No. per 5 min; the “Group Mean of Total Testing Behavior” value came out at 39.2 ± 27.5 No. per 5 min. Under setting [3], the “Group Mean … Biting and Trembling” value came out at 17.4 ± 13.0 No. per 5 min; the “Group Mean … of Lifting” value amounted to 21.3 ± 25.2 No. per 5 min; the “Group Mean of Average Flinching Response” value came out at 22.0 ± 7.7 No. per 5 min; the “Group Mean of Total Testing Behavior” value was found to be 38.7 ± 31.8 No. per 5 min. Besides, under setting [4], the “Group Mean … Biting and Trembling” value was 32.6 ± 27.6 No. per 5 min; the “Group Mean … of Lifting” value was 8.2 ± 10.4 No. per 5 min; the “Group Mean of Average Flinching Response” value amounted to 16.0 ± 10.2 No. per 5 min; the “Group Mean of Total Testing Behavior” value is given as 40.8 ± 34.3 No. per 5 min. Besides, under setting [5], the “Group Mean … Biting and Trembling” value is on record as 20.7 ± 10.5 No. per 5 min; the “Group Mean … of Lifting” value was 5.1 ± 6.2 No. per 5 min; the “Group Mean of Average Flinching Response” value is 16.6 ± 7.3 No. per 5 min; the “Group Mean of Total Testing Behavior” value turned out to be 25.8 ± 15.1 No. per 5 min. Moreover, under setting [6], the “Group Mean … Biting and Trembling” value was 22.9 ± 14.5 No. per 5 min; the “Group Mean … of Lifting” value is 6.1 ± 6.7 No. per 5 min; the “Group Mean of Average Flinching Response” value is 22.3 ± 12.5 No. per 5 min; the “Group Mean of Total Testing Behavior” value was 29.0 ± 16.4 No. per 5 min. For the setting “phase 1”, the “Effect on duration of paw lifting post-formalin injection (in words)” value is “no effects”; the “Effect on all testing behaviors (lifting, licking, biting and trembling) post-formalin injection (in words)” value (shortened to “Effect on all testing behaviors”) is given as “no any effects”. Further, the “Effect on duration of licking, biting and trembling post-formalin injection (in words)” value (from here on “Effect on duration of licking”) under setting [7] is “neither the control compounds (morphine and gabapentin) nor Compound 1A (at 3 mg/kg) had any effects”. Further, under “phase 2”, the “Effect on duration of paw lifting post-formalin injection (in words)” value was “significant effect on inhibiting”; the “Effect on all testing behaviors” value is on record as “significantly reduced”. In addition, the “Overall effect post formalin-induced pains (in words)” value (phase 2 observation period, especially at 10 mg/kg and 30 mg/kg) was “anti-nociceptive effects”. The “Activity in the formalin pain model (in words)” value (rat, in vivo) is “active”.

On to `NCC1(CC(=O)O)CCCCC1` [Gabapentin, reference compound], for which the “Effect on the flinching response (in words)” value is on record as “no effect”. Further, under setting [8], the “Group Mean … Biting and Trembling” value is 26.9 ± 14.7 No. per 5 min; the “Group Mean … of Lifting” value was found to be 39.8 ± 41.5 No. per 5 min; the “Group Mean of Average Flinching Response” value is reported as 11.5 ± 5.7 No. per 5 min; the “Group Mean of Total Testing Behavior” value worked out at 66.6 ± 34.8 No. per 5 min. Under setting [9], the “Group Mean … Biting and Trembling” value came out at 17.1 ± 9.1 No. per 5 min; the “Group Mean … of Lifting” value is 20.7 ± 23.2 No. per 5 min; the “Group Mean of Average Flinching Response” value is on record as 16.0 ± 13.3 No. per 5 min; the “Group Mean of Total Testing Behavior” value was found to be 37.8 ± 23.7 No. per 5 min. Moreover, under “control compounds”, the “Overall effect of control compounds on formalin induced pain model (in words)” value is reported as “consistent effect of inhibiting nociceptive pain”. For the same compound, for the setting “phase 1”, the “Effect on duration of paw lifting post-formalin injection (in words)” value is listed as “no effects”; the “Effect on all testing behaviors” value was “no any effects”. Moreover, the “Effect on duration of licking” value under setting [7] was “neither the control compounds (morphine and gabapentin) nor Compound 1A (at 3 mg/kg) had any effects”. Besides, the “Effect on duration of licking” value (phase 2, 100 mg/kg) is recorded as “significantly decreased”. Also, under “phase 2”, the “Effect on duration of paw lifting post-formalin injection (in words)” value is “significant effect on inhibiting”; the “Effect on all testing behaviors” value is listed as “significantly reduced”.

As to `CN1CC[C@]23c4c5ccc(O)c4O[C@H]2[C@@H](O)C=C[C@H]3[C@H]1C5` [morphine, reference compound], the “Effect on the flinching response (in words)” value was “no effect”. Under setting [10], the “Group Mean … Biting and Trembling” value was found to be 20.5 ± 13.1 No. per 5 min; the “Group Mean … of Lifting” value amounted to 37.8 ± 27.7 No. per 5 min; the “Group Mean of Average Flinching Response” value was determined as 10.8 ± 7.7 No. per 5 min; the “Group Mean of Total Testing Behavior” value is listed as 58.3 ± 37.7 No. per 5 min. Besides, under setting [11], the “Group Mean … Biting and Trembling” value was determined as 12.1 ± 7.2 No. per 5 min; the “Group Mean … of Lifting” value worked out at 3.2 ± 4.4 No. per 5 min; the “Group Mean of Average Flinching Response” value is 12.3 ± 6.9 No. per 5 min; the “Group Mean of Total Testing Behavior” value amounted to 15.3 ± 9.0 No. per 5 min. The “Overall effect of control compounds on formalin induced pain model (in words)” value (control compounds) is “consistent effect of inhibiting nociceptive pain”. Under “phase 1”, the “Effect on duration of paw lifting post-formalin injection (in words)” value is on record as “no effects”; the “Effect on all testing behaviors” value is listed as “no any effects”. Also, under setting [7], the “Effect on duration of licking” value was “neither the control compounds (morphine and gabapentin) nor Compound 1A (at 3 mg/kg) had any effects”. Also, the “Effect on duration of licking” value (phase 2, 1 mg/kg) is recorded as “significantly decreased”. For the setting “phase 2”, the “Effect on duration of paw lifting post-formalin injection (in words)” value is on record as “significant effect on inhibiting”; the “Effect on all testing behaviors” value is “significantly reduced”.
